The target of experiment [1] is Voltage-gated inwardly rectifying potassium channel KCNH2 (Homo sapiens, UniProt Q12809). In kind it is functional.
Experiment [2] concerns the target T1, Amine oxidase [flavin-containing] A (Homo sapiens, UniProt P21397).
T1 sequence (P21397 whole entry): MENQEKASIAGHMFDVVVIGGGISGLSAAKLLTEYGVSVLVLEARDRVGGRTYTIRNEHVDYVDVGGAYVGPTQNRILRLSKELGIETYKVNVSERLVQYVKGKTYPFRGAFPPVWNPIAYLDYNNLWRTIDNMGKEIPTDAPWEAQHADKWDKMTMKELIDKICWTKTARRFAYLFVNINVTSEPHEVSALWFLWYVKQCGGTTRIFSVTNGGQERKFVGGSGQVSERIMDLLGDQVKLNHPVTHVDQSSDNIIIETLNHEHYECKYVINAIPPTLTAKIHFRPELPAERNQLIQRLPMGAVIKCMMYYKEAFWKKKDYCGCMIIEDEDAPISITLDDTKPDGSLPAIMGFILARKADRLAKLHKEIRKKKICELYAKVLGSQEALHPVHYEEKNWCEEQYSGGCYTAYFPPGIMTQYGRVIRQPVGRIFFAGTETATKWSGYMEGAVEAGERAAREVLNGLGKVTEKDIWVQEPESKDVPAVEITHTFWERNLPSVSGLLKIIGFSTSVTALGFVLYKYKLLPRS
The experiment is classed as functional.

The target in experiment [3] is T2, Type-1 angiotensin II receptor (Homo sapiens, UniProt P30556).
T2 sequence (P30556 whole entry): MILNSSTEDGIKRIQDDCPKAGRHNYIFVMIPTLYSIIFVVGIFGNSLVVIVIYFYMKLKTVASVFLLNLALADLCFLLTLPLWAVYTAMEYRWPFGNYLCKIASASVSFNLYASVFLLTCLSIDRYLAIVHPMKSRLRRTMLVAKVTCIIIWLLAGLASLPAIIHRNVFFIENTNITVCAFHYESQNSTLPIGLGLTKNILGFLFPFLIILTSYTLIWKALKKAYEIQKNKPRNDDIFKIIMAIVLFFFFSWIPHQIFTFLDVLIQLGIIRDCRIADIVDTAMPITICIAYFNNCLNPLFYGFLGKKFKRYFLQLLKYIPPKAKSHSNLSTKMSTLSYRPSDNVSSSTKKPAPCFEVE

Experiment [4] deals with T3, Prostaglandin G/H synthase 1 (Rattus norvegicus, UniProt Q63921).
T3 sequence (Q63921 whole entry): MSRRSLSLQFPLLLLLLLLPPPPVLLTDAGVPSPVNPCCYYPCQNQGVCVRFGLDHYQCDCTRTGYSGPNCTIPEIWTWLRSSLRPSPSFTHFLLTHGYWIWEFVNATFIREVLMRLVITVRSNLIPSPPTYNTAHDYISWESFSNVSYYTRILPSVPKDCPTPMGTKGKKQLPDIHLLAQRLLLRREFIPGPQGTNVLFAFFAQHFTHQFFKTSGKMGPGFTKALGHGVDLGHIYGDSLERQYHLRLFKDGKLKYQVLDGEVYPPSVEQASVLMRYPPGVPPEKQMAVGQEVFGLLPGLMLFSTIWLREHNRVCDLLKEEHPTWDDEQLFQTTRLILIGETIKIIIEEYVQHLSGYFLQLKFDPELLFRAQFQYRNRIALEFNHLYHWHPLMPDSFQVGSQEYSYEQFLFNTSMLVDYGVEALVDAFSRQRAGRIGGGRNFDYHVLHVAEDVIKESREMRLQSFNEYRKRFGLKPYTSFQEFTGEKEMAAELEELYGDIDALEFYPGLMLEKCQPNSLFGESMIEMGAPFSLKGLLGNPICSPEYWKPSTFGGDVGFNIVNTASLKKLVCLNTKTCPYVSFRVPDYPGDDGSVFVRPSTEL
The experiment is classed as functional.

The target in a further experiment is D(3) dopamine receptor (Homo sapiens, UniProt P35462).
Experiment [5] addresses T4, 5-hydroxytryptamine receptor 2C (Homo sapiens, UniProt P28335).
T4 sequence (P28335 whole entry): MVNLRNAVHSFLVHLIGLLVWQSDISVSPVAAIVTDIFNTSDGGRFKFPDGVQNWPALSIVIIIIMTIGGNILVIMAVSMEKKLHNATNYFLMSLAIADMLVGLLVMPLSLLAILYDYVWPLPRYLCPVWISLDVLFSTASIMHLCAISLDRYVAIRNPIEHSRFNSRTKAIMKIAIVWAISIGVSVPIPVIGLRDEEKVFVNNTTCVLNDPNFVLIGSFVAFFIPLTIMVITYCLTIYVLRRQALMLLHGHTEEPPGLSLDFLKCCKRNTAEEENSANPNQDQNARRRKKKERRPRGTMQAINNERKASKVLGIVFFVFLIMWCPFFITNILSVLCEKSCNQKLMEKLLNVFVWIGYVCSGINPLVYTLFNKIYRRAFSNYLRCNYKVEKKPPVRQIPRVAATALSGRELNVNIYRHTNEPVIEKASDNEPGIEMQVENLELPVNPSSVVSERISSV

In another experiment the target is T5, Glucocorticoid receptor (Homo sapiens, UniProt P04150).
T5 sequence (P04150 whole entry): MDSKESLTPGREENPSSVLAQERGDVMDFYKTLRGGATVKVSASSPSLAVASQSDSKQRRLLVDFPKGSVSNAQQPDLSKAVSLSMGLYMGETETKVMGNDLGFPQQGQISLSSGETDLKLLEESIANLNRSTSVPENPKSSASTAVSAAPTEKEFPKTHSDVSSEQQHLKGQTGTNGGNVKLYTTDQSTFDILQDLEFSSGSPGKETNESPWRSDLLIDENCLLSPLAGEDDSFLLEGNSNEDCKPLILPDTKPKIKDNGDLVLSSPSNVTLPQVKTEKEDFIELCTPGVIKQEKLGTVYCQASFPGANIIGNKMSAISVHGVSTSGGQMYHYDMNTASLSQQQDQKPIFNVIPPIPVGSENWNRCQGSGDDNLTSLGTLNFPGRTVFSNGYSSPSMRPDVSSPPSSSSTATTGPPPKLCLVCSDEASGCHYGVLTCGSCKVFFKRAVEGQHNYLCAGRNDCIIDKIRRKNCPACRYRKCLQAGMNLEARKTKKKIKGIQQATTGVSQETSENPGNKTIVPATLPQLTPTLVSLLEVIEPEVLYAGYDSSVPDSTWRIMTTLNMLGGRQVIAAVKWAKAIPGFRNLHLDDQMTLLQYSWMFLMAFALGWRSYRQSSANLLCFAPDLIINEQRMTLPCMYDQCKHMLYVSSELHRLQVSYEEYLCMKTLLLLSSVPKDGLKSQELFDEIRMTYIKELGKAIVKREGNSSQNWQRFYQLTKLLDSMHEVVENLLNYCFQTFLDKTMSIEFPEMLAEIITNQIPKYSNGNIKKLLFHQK

In ChEMBL document CHEMBL5291721, “A preclinical secondary pharmacology resource illuminates target-adverse drug reaction associations of marketed drugs” (Nat Commun, 2023) one finds AC50 data, which are given here for eleven compounds.

Broadly, the AC50 is the midpoint of the concentration-response curve, whichever way the signal moves. Read a low AC50 as greater potency.
Also: assay procedure not described here.

D(3) dopamine receptor, sequence (P35462 whole entry): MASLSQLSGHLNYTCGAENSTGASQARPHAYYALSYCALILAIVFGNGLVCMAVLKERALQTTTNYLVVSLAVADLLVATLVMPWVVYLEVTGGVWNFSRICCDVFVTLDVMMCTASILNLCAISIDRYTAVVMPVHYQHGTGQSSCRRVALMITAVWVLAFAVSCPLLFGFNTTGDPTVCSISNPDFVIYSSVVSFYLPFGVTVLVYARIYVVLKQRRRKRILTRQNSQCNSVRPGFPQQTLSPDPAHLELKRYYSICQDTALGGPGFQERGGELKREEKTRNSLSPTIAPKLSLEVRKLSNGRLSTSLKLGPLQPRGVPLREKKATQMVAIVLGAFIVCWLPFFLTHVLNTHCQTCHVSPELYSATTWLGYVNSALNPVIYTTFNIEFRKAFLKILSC
Voltage-gated inwardly rectifying potassium channel KCNH2, sequence (Q12809 whole entry): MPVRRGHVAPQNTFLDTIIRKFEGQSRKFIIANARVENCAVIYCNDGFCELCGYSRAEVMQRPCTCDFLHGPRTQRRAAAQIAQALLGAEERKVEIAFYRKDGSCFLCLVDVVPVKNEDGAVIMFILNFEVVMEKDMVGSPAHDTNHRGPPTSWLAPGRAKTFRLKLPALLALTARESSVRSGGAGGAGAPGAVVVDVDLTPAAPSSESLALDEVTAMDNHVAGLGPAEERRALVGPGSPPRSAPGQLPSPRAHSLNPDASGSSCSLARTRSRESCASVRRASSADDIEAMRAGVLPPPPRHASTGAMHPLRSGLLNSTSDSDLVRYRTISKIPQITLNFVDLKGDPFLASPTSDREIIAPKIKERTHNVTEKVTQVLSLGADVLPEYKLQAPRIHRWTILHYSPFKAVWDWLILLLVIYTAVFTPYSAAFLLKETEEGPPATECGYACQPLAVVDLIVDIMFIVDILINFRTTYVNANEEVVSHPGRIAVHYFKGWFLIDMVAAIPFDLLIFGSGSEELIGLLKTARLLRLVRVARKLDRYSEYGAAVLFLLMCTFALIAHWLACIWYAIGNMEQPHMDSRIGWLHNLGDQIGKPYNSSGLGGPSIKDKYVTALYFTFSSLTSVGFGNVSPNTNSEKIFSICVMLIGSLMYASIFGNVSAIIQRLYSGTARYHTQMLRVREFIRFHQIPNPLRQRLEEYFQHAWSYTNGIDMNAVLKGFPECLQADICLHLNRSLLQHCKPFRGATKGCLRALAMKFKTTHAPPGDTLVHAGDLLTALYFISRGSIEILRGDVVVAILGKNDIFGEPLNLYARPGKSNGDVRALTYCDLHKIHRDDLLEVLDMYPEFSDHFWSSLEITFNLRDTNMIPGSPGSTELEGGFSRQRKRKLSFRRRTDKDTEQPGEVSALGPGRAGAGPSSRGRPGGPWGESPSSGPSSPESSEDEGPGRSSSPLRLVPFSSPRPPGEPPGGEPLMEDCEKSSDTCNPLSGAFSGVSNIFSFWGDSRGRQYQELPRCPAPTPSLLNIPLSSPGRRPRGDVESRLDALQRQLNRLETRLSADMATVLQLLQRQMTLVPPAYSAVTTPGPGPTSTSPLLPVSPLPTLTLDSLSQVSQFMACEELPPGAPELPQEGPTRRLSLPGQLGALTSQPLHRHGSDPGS

As to `CCN1CC(CCN2CCOCC2)C(c2ccccc2)(c2ccccc2)C1=O` (configuration not stated) [DOXAPRAM], the AC50 was 10.5 µM in experiment [1]; over 30 µM in experiment [2]; over 30 µM in experiment [3]; over 30 µM in experiment [4]; over 30 µM at D(3) dopamine receptor; 0.071 µM in experiment [5]. Besides, the half-maximal activity concentration (AC50) on Glucocorticoid receptor was over 30 µM.

Take `CCCCOc1ccc(C(=O)CCN2CCCCC2)cc1` [DYCLONINE]: the AC50 in experiment [1] was 3.3 µM; in experiment [2], over 10 µM; in experiment [3], over 30 µM; in experiment [4], over 30 µM; at D(3) dopamine receptor it was over 10 µM; in experiment [5], over 10 µM. Also, on Glucocorticoid receptor, the AC50 was over 30 µM.

For `CCc1cc2c(s1)-n1c(C)nnc1CN=C2c1ccccc1Cl` [ETIZOLAM], the AC50 (in experiment [1]; in experiment [2]; in experiment [3]; in experiment [4]; on D(3) dopamine receptor; in experiment [5]) was over 30 µM throughout. Besides, at Glucocorticoid receptor, the AC50 is over 30 µM.

With `CC/C=C\C/C=C\C/C=C\C/C=C\C/C=C\CCCC(=O)OCC` [ICOSAPENT ETHYL], the AC50 in experiment [1] was over 30 µM; in experiment [2], over 30 µM; in experiment [3] it was over 30 µM; in experiment [4] it was 2.4 µM; on D(3) dopamine receptor, over 30 µM; in experiment [5], over 30 µM. Moreover, the AC50 at Glucocorticoid receptor is over 30 µM.

Consider `NNC(=O)c1ccncc1` [ISONIAZID], for which the AC50 (in experiment [1]; in experiment [2]; in experiment [3]; in experiment [4]; on D(3) dopamine receptor; in experiment [5]) was over 30 µM in each case. On Glucocorticoid receptor, this compound had an AC50 of over 30 µM.

Take `COc1ccc(CN2CCN(C(c3ccc(F)cc3)c3ccc(F)cc3)CC2)c(OC)c1OC` [LOMERIZINE]: the AC50 is 0.45 µM in experiment [1]; over 30 µM in experiment [2]; over 30 µM in experiment [3]; over 30 µM in experiment [4]; 2.2 µM on D(3) dopamine receptor; 16 µM in experiment [5]. This compound gave an AC50 on Glucocorticoid receptor of over 30 µM.

In the case of `O=C1Nc2ccc(Cl)cc2C(c2ccccc2Cl)=NC1O` (configuration not stated) [LORAZEPAM], the AC50 in experiment [1] was over 30 µM; in experiment [2] it was over 10 µM; in experiment [3], over 30 µM; in experiment [4] it was over 30 µM; at D(3) dopamine receptor, over 10 µM; in experiment [5], over 30 µM. In addition, the AC50 on Glucocorticoid receptor was over 30 µM.

For `CC(=O)[C@H]1CC[C@H]2[C@@H]3C[C@H](C)C4=CC(=O)CC[C@]4(C)[C@H]3[C@@H](O)C[C@]12C` [MEDRYSONE], the AC50 in experiment [1] was over 30 µM; in experiment [2], over 10 µM; in experiment [3], over 10 µM; in experiment [4], over 10 µM; at D(3) dopamine receptor, over 30 µM; in experiment [5], over 30 µM. The compound also showed an AC50 on Glucocorticoid receptor of 0.005 µM.

Turning to `CCCC(C)(COC(N)=O)COC(N)=O` [MEPROBAMATE], the AC50 was over 30 µM in experiment [1]; over 30 µM in experiment [2]; over 10 µM in experiment [3]; over 10 µM in experiment [4]; over 30 µM at D(3) dopamine receptor; over 30 µM in experiment [5]. On Glucocorticoid receptor, this compound showed an AC50 of over 10 µM.

With `Cc1ccnc2c1NC(=O)c1cccnc1N2C1CC1` [NEVIRAPINE], the AC50 in experiment [1] is over 30 µM; in experiment [2] it was over 10 µM; in experiment [3], over 30 µM; in experiment [4], over 30 µM; at D(3) dopamine receptor, over 10 µM; in experiment [5], over 10 µM. In addition, the AC50 on Glucocorticoid receptor was over 30 µM.

`O=C(NCCO[N+](=O)[O-])c1cccnc1` [NICORANDIL]: the AC50 (in experiment [1]; in experiment [2]; in experiment [3]; in experiment [4]; on D(3) dopamine receptor; in experiment [5]) was over 30 µM each time. Also, the AC50 at Glucocorticoid receptor was over 30 µM.
